Measurements: PubChem BioAssay (NCI)
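All cell lines were grown in 96-well plates and treated with compound for 48 hours. At the GI50, growth is halved. TGI is the concentration that stops growth completely.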

Assays:
RXF-631 renal = experiment: NCI tumour cell line growth inhibition, 48 h
P388/ADR leukemia = experiment: NCI tumour cell line growth inhibition, 48 h

In the case of `COC(=O)Cc1cc(O)c2c(c1O)C(=O)c1ccccc1C2=O`, the TGI (RXF-631 renal) was > 100 µM.
With `Cc1cc([NH-])c([NH-])cc1C.[Cl][Pt+2][Cl]` the GI50 (P388/ADR leukemia) was 2.36 µM and the TGI (P388/ADR leukemia) was 6.97 µM.
